Data published in patent US12338261B2 (SUMITOMO PHARMA ONCOLOGY, INC., priority 2015, dated 2025).
Where two headings read alike, the source gives them in different places.

Key:
Dog plasma stability = type: in vitro ADME
Protocol: (§1) The plasma stability of compound IB′ was determined using plasma from four species. Results for mouse, rat, dog and human are shown in Tables 5, 6, 7 and 8 respectively. Alvocidib and flumazenil were used as controls. In mouse, rat and human plasma, compound IB′ maintained 100% stability after 5 hour incubation. In dog plasma, approximately 90% of compound IB′ remained after 5 hours.

[1] = type: in vitro ADME, mouse; conditions: for % Remaining: mouse, plasma
Protocol: as §1

Human plasma stability = type: in vitro ADME
Protocol: The plasma stability of compound IB′ was determined using plasma from four species.

[2] = type: in vitro ADME, rat; conditions: for % Remaining: rat, plasma
Protocol: as §1

[3] = Maximum tolerated acute dose in rats
Protocol: (§2) Acute (i.e. single dose) toxicology studies were performed in rats. Acute studies were performed in female Sprague Dawley rats using three animals per treatment group. […] Body weight measurements following oral dosing (see FIG. 4A), along with mortality, clinical observations, food consumption (see FIG. 4B), and complete blood counts (CBCs; see Table 12) were used to determine the maximum tolerated acute dose (MTDacute).

[4] = for MTDrepeat: female SHO SCID mice, five daily doses
Protocol: Repeat dose toxicology studies were performed in female SHO SCID mice using 3 animals per treatment group. […] Body weight measurements of animals treated by oral (see FIGS. 3A-B) and intravenous (see FIG. 3C-D) dosing over the course of the 5-day repeat dosing period and subsequent 5-day observation period, along with mortality and clinical observations, were used to determine the maximum tolerated dosing schedule (MTDrepeat).

[5] = female SHO SCID mice, single dose
Protocol: Acute studies were performed in female SHO SCID mice using three animals per treatment group. […] Body weight measurements following oral dosing (FIGS. 2A-B) and intravenous (IV) dosing (FIG. 2C-D) were used, along with mortality and clinical observations to determine the maximum tolerated acute dose (MTDacute).

[6] = rat, in vivo, po
Protocol: as §2

[7] = CD-1, mouse, in vivo
[8] = Pharmacokinetic profile of alvocidib prodrugs in CD-1 mice (IV/PO)
[9] = rats, single oral dose 36 mg/kg

## CCOC(=O)c1ncn2c1CN(C)C(=O)c1cc(F)ccc1-2 [Flumazenil]
Dog plasma stability; dog, plasma, 0 h
  % Remaining: 100.00%
Dog plasma stability; dog, plasma, 0.5 h
  % Remaining: 91.80%
Dog plasma stability; dog, plasma, 1 h
  % Remaining: 92.00%
Dog plasma stability; dog, plasma, 2 h
  % Remaining: 100.99%
Dog plasma stability; dog, plasma, 3 h
  % Remaining: 115.10%
Dog plasma stability; dog, plasma, 4 h
  % Remaining: 99.44%
Dog plasma stability; dog, plasma, 5 h
  % Remaining: 100.53%
[1]
  plasma stability (in words): unstable
[1]; 0 h
  % Remaining: 100.00%
[1]; 0.5 h
  % Remaining: 29.96%
[1]; 1 h
  % Remaining: 10.21%
[1]; 2 h
  % Remaining: 1.56%
[1]; 3 h
  % Remaining: 0.39%
[1]; 4 h
  % Remaining: 0.20%
[1]; 5 h
  % Remaining: 0.07%
Human plasma stability; human, plasma, 0 h
  % Remaining: 100.00%
Human plasma stability; human, plasma, 0.5 h
  % Remaining: 96.56%
Human plasma stability; human, plasma, 1 h
  % Remaining: 90.83%
Human plasma stability; human, plasma, 2 h
  % Remaining: 92.41%
Human plasma stability; human, plasma, 3 h
  % Remaining: 117.98%
Human plasma stability; human, plasma, 4 h
  % Remaining: 95.32%
Human plasma stability; human, plasma, 5 h
  % Remaining: 94.63%
[2]
  plasma stability (in words): unstable
[2]; 0 h
  % Remaining: 100.00%
[2]; 0.5 h
  % Remaining: 42.23%
[2]; 1 h
  % Remaining: 16.13%
[2]; 2 h
  % Remaining: 1.69%
[2]; 3 h
  % Remaining: 0.23%
[2]; 4 h
  % Remaining: 0.00%
[2]; 5 h
  % Remaining: 0.00%

## CN1CCC(c2c(OP(=O)(O)O)cc(O)c3c(=O)cc(-c4ccccc4Cl)oc23)C(O)C1 (stereo not drawn) [Compound IB]
[3]; [9]
  clinical observations: Diarrhea, body weight loss and increased lethargy were observed
  mortality: one animal died on day three, one animal died on day four, and one animal died on day 5
[4]; dosed orally
  MTDrepeat: 7.5 mg/kg

## CN1CC[C@H](c2c(O)cc(O)c3c(=O)cc(-c4ccccc4Cl)oc23)[C@H](O)C1 [Alvocidib]
Dog plasma stability; dog plasma, 0 hours
  % Remaining: 100.00%
Dog plasma stability; dog plasma, 0.5 hours
  % Remaining: 96.41%
Dog plasma stability; dog plasma, 1 hour
  % Remaining: 89.16%
Dog plasma stability; dog plasma, 2 hours
  % Remaining: 105.76%
Dog plasma stability; dog plasma, 3 hours
  % Remaining: 105.84%
Dog plasma stability; dog plasma, 4 hours
  % Remaining: 97.65%
Dog plasma stability; dog plasma, 5 hours
  % Remaining: 100.40%
Dog plasma stability; dog plasma, 5 hours, listed as alvocidib
  % Remaining: 100%
[3]; female, Sprague Dawley, rat, in vivo, po
  NOAEL: 9 mg/kg
[5]; dosed intravenously
  MTDacute: 7.5 mg/kg
[5]; dosed orally
  MTDacute: 15 mg/kg
[1]; 0 h
  % Remaining: 100.00%
[1]; 0.5 h
  % Remaining: 93.58%
[1]; 1 h
  % Remaining: 103.12%
[1]; 2 h
  % Remaining: 97.19%
[1]; 3 h
  % Remaining: 117.38%
[1]; 4 h
  % Remaining: 115.72%
[4]; dosed intravenously
  MTDrepeat: 7.5 mg/kg
[4]; dosed orally
  MTDrepeat: 7.5 mg/kg
[4]; mouse, in vivo, 15 mg/kg
  clinical observations: Lethargy, body weight loss, and deaths were observed
Human plasma stability; human plasma, 0 hours
  % Remaining: 100.00%
Human plasma stability; human plasma, 0.5 hours
  % Remaining: 92.61%
Human plasma stability; human plasma, 1 hour
  % Remaining: 93.54%
Human plasma stability; human plasma, 2 hours
  % Remaining: 93.29%
Human plasma stability; human plasma, 3 hours
  % Remaining: 111.62%
Human plasma stability; human plasma, 4 hours
  % Remaining: 100.25%
Human plasma stability; human plasma, 5 hours
  % Remaining: 100%
[6]; 4.5 mg/kg
  HCT: 43.6%
  MCH: 18.7 pg
  MCHC: 35.4 g/dL
  MCV: 52.7 fL
  PLT: 34.7 10^3/μL
  RBC: 8.3 10^6/μL
  RDWA: 16.0 fL
  WBC: 15.4 10^3/μL
  platelet counts versus normal range: outside the normal range
[6]; 9 mg/kg
  HCT: 47.1%
  MCH: 19.3 pg
  MCHC: 35.7 g/dL
  MCV: 54.0 fL
  PLT: 36.3 10^3/μL
  RBC: 8.7 10^6/μL
  RDWA: 16.2 fL
  WBC: 16.8 10^3/μL
[6]; 18 mg/kg
  HCT: 47.3%
  MCH: 19.3 pg
  MCHC: 35.9 g/dL
  MCV: 53.8 fL
  PLT: 36.1 10^3/μL
  RBC: 8.8 10^6/μL
  RDWA: 16.1 fL
  WBC: 16.9 10^3/μL
  abnormal food consumption patterns: abnormal food consumption patterns were observed
  diarrhea: did show signs of diarrhea
[2]; 0 h
  % Remaining: 100.00%
[2]; 0.5 h
  % Remaining: 93.12%
[2]; 1 h
  % Remaining: 90.20%
[2]; 2 h
  % Remaining: 99.31%
[2]; 3 h
  % Remaining: 98.69%
[2]; 4 h
  % Remaining: 92.57%
[7]
  Bioavail.: 102 ± 11.7 % F
[7]; iv, 1 mg/kg
  AUC0-∞: 517.0 ± 47.0 ng·h/mL
  AUCLast: 498.0 ± 46.0 ng·h/mL
  Clearance: 1.9 ± 0.2 L/h/kg
  Half life: 2.0 ± 0.4 h
  Vd: 5.5 ± 1.2 L/kg
  VdSS: 3.8 ± 0.6 L/kg
[7]; po, 10 mg/kg
  AUC0-∞: 5341.1 ± 274.2 ng·h/mL
  AUCLast: 5034.1 ± 145.6 ng·h/mL
  Half life: 5.7 ± 0.7 h

## CN1CC[C@H](c2c(O)cc(O)c3c(=O)cc(-c4ccccc4Cl)oc23)[C@H](OC(=O)C(C)(C)C)C1 [E]
[8]
  conversion to alvocidib in vivo (alvocidib detected in plasma samples): did not convert to alvocidib in vivo

## C[N+]1(C)CC[C@H](c2c(O)cc(O)c3c(=O)cc(-c4ccccc4Cl)oc23)[C@H](O)C1 [F]
[8]
  conversion to alvocidib in vivo (alvocidib detected in plasma samples): did not convert to alvocidib in vivo
